These results are taken from patent publication US20240316022A1 (TYRA BIOSCIENCES, INC., priority 2021, published 2024).

The target of one test is T1, FGFR1 (Homo sapiens, UniProt P11362).
T1 construct: made in house; host or cells: E. coli derived from BL21, infected with T7 phage
In words: Kinase binding assay (kinase-tagged T7 phage, qPCR), Kd. The settings on record: read-out: FGFR1 (Kd nM). (Quantitative PCR measures a nucleic acid by following its amplification.)

A further test has as its target T2, FGFR2 (Homo sapiens, UniProt P21802).
T2 construct: made in house; host or cells: E. coli derived from BL21, infected with T7 phage
The test is described as above. The settings on record: read-out: FGFR2 (Kd nM).

The target in another test is T3, FGFR3 (Homo sapiens, UniProt P22607).
T3 construct: made in house; host or cells: E. coli derived from BL21, infected with T7 phage
T3 sequence (P22607 23-806): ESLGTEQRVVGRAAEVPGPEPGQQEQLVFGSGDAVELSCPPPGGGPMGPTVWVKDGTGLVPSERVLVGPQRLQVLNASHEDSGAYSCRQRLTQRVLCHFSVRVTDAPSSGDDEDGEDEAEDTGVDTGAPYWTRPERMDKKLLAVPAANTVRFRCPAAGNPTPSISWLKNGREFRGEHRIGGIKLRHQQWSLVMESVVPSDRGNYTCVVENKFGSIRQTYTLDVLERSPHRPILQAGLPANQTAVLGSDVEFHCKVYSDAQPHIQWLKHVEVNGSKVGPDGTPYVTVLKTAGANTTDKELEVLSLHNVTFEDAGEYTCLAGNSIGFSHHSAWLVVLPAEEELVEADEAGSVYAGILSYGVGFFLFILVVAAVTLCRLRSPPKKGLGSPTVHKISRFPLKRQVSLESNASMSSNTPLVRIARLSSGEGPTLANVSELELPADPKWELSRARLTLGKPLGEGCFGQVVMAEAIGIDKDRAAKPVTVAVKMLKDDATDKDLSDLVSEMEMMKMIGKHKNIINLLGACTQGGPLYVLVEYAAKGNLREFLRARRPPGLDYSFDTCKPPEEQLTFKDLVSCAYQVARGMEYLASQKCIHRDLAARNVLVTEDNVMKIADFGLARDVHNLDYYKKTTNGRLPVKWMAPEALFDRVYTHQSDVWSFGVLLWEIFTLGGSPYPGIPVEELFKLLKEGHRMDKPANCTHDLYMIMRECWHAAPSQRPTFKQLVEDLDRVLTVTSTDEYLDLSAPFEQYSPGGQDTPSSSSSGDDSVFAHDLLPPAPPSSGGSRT
Described as above. Conditions: read-out: FGFR3 (Kd nM).

The target of a further test is T4, FGFR4 (Homo sapiens, UniProt P22455).
T4 construct: made in house; host or cells: E. coli derived from BL21, infected with T7 phage
T4 sequence (P22455 22-802): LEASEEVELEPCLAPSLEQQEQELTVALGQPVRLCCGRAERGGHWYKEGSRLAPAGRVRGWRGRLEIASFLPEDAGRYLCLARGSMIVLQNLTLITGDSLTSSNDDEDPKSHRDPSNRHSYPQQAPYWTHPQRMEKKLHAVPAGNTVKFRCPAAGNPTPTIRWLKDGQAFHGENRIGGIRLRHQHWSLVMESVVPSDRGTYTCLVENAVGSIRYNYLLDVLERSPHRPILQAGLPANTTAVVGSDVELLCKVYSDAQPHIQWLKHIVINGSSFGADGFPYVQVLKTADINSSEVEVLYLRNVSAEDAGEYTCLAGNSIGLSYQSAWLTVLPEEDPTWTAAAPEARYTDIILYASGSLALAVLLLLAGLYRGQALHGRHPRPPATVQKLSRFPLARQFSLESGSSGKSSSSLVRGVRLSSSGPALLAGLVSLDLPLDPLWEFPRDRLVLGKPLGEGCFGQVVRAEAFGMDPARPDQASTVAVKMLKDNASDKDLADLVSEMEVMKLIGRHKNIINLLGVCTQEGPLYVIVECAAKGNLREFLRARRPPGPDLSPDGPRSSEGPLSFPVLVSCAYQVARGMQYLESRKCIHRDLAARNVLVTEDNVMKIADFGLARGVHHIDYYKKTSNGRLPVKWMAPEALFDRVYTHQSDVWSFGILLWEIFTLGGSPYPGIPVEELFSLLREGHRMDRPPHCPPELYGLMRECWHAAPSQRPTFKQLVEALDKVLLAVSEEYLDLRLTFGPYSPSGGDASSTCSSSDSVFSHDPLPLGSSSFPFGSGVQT
The test is described as above. The settings on record: read-out: FGFR4 (Kd nM).

The target of another test is T5, BCR-FGFR1 Ba/F3 (Homo sapiens, UniProt P11362).
T5 construct: host or cells: Ba/F3; the other entry of the earlier key: BCR (P11274, Breakpoint cluster region protein)
T5 sequence (P11362 478-767 limits assumed): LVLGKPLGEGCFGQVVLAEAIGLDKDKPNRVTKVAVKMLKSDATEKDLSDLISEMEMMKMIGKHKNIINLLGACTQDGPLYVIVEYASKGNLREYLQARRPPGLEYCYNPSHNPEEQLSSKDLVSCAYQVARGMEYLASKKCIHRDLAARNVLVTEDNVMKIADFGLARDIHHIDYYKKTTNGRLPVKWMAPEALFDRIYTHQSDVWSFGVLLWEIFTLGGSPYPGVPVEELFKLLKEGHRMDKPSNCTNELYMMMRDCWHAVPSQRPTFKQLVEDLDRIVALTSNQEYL
In words: Ba/F3 cell viability assay (CellTiter-Glo 2.0). In kind it is cell-based. Conditions: Ba/F3 BCR-FGFR1 cells, 48 hours. The source says:
(§1) Experimental Purpose: Recombinant kinase fusions are transduced into parental Ba/F3, which becomes dependent upon this constitutive kinase activity for IL3-independent survival. Inhibition of kinase activity leads to cell death, which is monitored using CellTiter-Glo® 2.0 (Promega) which measures intracellular ATP concentration that in turn serves as a marker for viability. BCR-FGFR4 Ba/F3, BCR-FGFR1 Ba/F3 and FGFR3-BAIAP2L1 Ba/F3 were obtained from Advanced Cellular Dynamics (Seattle, WA)
(§2) Cell Viability Assay Procedure: Cell Titer-Glo® 2.0 Luminescent cell viability assay reagent was purchased from Promega (Madison, WI). BCR-FGFR4 Ba/F3, BCR-FGFR1 Ba/F3 and FGFR3-BAIAP2L1 Ba/F3 cells were cultured in RPMI1640 media supplemented with 10% fetal bovine serum. Cultures were maintained at 37° C. in a humidified atmosphere of 5% CO2 and 95% air.
(§3) Cells were plated in 96-well clear bottom/white plates (Corning #3903) at 10,000 cells/well in 100 μl of media, incubated overnight. The next day, test compound DMSO stock solutions were made at 10 mM and 2 μM final concentration. Compounds were then added to cells in a 9-dose, 10-fold dilution series starting at 30 μM with an HP 300e Digital Dispenser (each dose was applied in triplicate). DMSO was backfilled to each well up to 301 nL total volume of test compound+DMSO, and a total of 301 nL DMSO was added to a control/no test compound well in triplicate. The cells in cell culture plates were incubated with the compounds at 37° C. and 5% CO2 for 48 hours. Then 50 μl of Cell Titer Glo 2.0 reagent was added to each well of the cell culture plates. The contents were covered from light and mixed on an orbital shaker at room temperature for 10 min. Luminescence was recorded by a Synergy H1 Microplate Reader (Biotek, Winooski, VT). Cells were assessed as a percentage of DMSO only treated control cells. Curves were plotted and IC50 values were calculated using the GraphPad Prism 8 program based on a sigmoidal dose-response equation (4 parameter).

The next test concerns the target T6, FGFR3-BAIAP2L1 Ba/F3 (Homo sapiens, UniProt P22607).
T6 construct: host or cells: Ba/F3; the other entry of the earlier key: BAIAP2L1 (Q9UHR4, BAR/IMD domain-containing adapter protein 2-like 1)
In words: Ba/F3 cell viability assay (CellTiter-Glo 2.0). Type of test: cell-based. The settings on record: Ba/F3 FGFR3-BAIAP2L1 cells, 48 hours.
Description: as §1, §2, §3
Background: ATP-based viability assays read luminescence as a measure of living cells.

Usually Kd stands for the free concentration of one partner at which half of the binding sites on the other are occupied at equilibrium, for simple one-to-one binding. A word on the IC50: it is the midpoint of a concentration-inhibition curve.

T6 sequence (P22607 397-758 limits assumed): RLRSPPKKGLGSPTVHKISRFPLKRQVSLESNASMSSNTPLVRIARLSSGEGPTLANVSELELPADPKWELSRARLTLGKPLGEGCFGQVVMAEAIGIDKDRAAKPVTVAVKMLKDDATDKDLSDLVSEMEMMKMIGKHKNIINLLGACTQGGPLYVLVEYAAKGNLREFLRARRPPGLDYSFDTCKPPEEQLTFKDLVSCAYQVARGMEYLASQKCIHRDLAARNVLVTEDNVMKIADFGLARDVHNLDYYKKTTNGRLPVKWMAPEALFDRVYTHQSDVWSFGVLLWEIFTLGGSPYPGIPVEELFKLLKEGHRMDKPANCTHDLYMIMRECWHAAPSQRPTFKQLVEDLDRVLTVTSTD
T2 sequence (P21802 22-821): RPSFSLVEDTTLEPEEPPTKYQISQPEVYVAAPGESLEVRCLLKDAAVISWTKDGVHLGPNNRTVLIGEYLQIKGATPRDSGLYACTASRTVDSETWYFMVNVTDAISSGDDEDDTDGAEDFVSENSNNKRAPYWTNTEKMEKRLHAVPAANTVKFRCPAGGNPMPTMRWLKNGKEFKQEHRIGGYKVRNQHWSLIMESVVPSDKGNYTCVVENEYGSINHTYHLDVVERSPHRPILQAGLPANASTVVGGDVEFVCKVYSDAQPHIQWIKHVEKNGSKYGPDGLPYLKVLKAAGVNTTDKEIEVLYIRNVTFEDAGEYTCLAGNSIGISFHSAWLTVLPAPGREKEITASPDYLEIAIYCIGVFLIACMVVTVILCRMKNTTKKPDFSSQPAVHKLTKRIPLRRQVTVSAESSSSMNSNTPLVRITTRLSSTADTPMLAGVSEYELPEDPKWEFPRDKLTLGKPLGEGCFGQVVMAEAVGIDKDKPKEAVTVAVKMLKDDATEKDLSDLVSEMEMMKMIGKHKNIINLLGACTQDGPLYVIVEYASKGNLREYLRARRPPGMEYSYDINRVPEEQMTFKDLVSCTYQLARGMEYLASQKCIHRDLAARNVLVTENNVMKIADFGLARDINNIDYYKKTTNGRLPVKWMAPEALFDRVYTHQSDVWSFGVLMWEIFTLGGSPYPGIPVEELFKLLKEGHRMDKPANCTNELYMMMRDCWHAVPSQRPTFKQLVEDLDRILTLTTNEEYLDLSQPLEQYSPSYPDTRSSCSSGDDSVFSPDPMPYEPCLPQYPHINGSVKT
T1 sequence (P11362 22-822): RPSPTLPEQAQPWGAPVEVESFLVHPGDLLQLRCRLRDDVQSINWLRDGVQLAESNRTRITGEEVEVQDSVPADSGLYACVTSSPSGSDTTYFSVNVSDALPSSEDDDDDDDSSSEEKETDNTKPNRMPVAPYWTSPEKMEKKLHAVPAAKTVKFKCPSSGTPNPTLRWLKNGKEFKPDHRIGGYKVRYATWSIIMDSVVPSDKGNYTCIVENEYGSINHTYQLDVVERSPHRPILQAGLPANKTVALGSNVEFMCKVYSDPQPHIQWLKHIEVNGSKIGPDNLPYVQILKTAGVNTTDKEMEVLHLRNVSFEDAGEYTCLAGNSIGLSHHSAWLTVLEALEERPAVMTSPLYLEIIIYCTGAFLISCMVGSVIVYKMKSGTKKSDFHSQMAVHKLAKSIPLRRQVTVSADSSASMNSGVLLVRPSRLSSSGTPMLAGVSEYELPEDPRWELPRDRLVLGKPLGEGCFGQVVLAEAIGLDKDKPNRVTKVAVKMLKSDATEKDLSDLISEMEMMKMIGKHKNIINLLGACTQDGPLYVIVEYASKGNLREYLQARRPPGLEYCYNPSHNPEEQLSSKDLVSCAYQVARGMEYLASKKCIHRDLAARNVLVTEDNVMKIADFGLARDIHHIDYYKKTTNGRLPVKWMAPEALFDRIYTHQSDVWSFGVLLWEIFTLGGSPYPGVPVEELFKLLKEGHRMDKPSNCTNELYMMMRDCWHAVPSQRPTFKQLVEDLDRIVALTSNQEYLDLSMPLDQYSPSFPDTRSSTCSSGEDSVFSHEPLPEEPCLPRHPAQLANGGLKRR

With `C[C@@H](Oc1ccc2[nH]nc(-c3ccc(N)nc3)c2c1)c1c(Cl)cncc1Cl` [Example 8, (R)-5-(5-(1-(3,5-Dichloropyridin-4-yl)ethoxy)-1H-indazol-3-yl)pyridin-2-amine], the Kd on FGFR1, at FGFR2, on FGFR3 and on FGFR4 was 0.1 to 100 nM in each case. For the same compound, the IC50 on BCR-FGFR1 Ba/F3 and at FGFR3-BAIAP2L1 Ba/F3 was 0.1 to 100 nM in each case.
As for `CNC(=O)c1ccc(-c2n[nH]c3ccc(O[C@H](C)c4c(Cl)cncc4Cl)cc23)cn1` [Example 9, (R)-5-(5-(1-(3,5-Dichloropyridin-4-yl)ethoxy)-1H-indazol-3-yl)-N-methylpicolinamide], the Kd on FGFR1, on FGFR2, on FGFR3 and on FGFR4 was 0.1 to 100 nM throughout. The values for the IC50 at BCR-FGFR1 Ba/F3 and at FGFR3-BAIAP2L1 Ba/F3 were 100 to 250 nM and 0.1 to 100 nM, respectively.
In the case of `C[C@@H](Oc1ccc2[nH]nc(-c3ccc(NC(=O)CN(C)C)nc3)c2c1)c1c(Cl)cncc1Cl` [Example 13, N-[5-[5-[(1R)-1-(3,5-dichloro-4-pyridyl)ethoxy]-1H-indazol-3-yl]-2-pyridyl]-2-(dimethylamino)-acetamide], the dissociation constant Kd at FGFR1, at FGFR2, on FGFR3 and at FGFR4 was 0.1 to 100 nM throughout. The IC50 on BCR-FGFR1 Ba/F3 and at FGFR3-BAIAP2L1 Ba/F3 was 0.1 to 100 nM each time.
Regarding `C[C@@H](Oc1ccc2[nH]nc(-c3ccc(NC(=O)N4CCOCC4)nc3)c2c1)c1c(Cl)cncc1Cl` [Example 16, N-[5-[5-[(1R)-1-(3,5-dichloro-4-pyridyl)ethoxy]-1H-indazol-3-yl]-2-pyridyl]morpholine-4-carboxamide], the Kd at FGFR1, at FGFR2, on FGFR3 and on FGFR4 was 0.1 to 100 nM each time. Moreover, the half-inhibitory concentration (IC50) at BCR-FGFR1 Ba/F3 and on FGFR3-BAIAP2L1 Ba/F3 was 0.1 to 100 nM each time.
Take `COc1c(F)cc(-c2n[nH]c3ccc(O[C@H](C)c4c(C)cnnc4C)cc23)cc1C#N` [Example 82, 5-[5-[(1R)-1-(3,5-dimethylpyridazin-4-yl)ethoxy]-1H-indazol-3-yl]-3-fluoro-2-methoxy-benzonitrile]: the Kd at FGFR1 lay in the range of 100 to 250 nM; on FGFR2, 100 to 250 nM; on FGFR3, 0.1 to 100 nM; on FGFR4, 0.1 to 100 nM. For the same compound, the half-maximal inhibitory concentration (IC50) at FGFR3-BAIAP2L1 Ba/F3 lay within 100 to 250 nM.
In the case of `C[C@@H](Oc1ccc2[nH]nc(-c3ccc4c(c3)C(=O)CC3(CCNCC3)O4)c2c1)c1c(Cl)cncc1Cl` [Example 92, (R)-6-(5-(1-(3,5-Dichloropyridin-4-yl)ethoxy)-1H-indazol-3-yl)spiro[chromane-2,4′-piperidin]-4-one], the Kd at FGFR1, at FGFR2, on FGFR3 and at FGFR4 was 0.1 to 100 nM each time. Also, the values for the IC50 at BCR-FGFR1 Ba/F3 and at FGFR3-BAIAP2L1 Ba/F3 were 250 to 1000 nM and 0.1 to 100 nM, respectively.
Take `CCN1CCC2(CC1)CC(=O)c1cc(-c3n[nH]c4ccc(O[C@H](C)c5c(Cl)cncc5Cl)cc34)ccc1O2` [Example 95, (R)-6-(5-(1-(3,5-Dichloropyridin-4-yl)ethoxy)-1H-indazol-3-yl)-1′-ethylspiro[chromane-2,4′-piperidin]-4-one]: the equilibrium dissociation constant (Kd) on FGFR1, at FGFR2, at FGFR3 and at FGFR4 was 0.1 to 100 nM each time. The figures for the IC50 on BCR-FGFR1 Ba/F3 and at FGFR3-BAIAP2L1 Ba/F3 were 100 to 250 nM and 0.1 to 100 nM, respectively.
Regarding `CCN1CCC2(CC1)OCc1cc(-c3n[nH]c4ccc(O[C@H](C)c5c(Cl)cncc5Cl)cc34)ccc1O2` [Example 96, (R)-6-(5-(1-(3,5-Dichloropyridin-4-yl)ethoxy)-1H-indazol-3-yl)-1′-ethyl-4H-spiro[benzo[d][1,3]dioxine-2,4′-piperidine]], the Kd at FGFR1, at FGFR2, at FGFR3 and on FGFR4 was 0.1 to 100 nM each time. The values for the IC50 at BCR-FGFR1 Ba/F3 and at FGFR3-BAIAP2L1 Ba/F3 were 100 to 250 nM and 0.1 to 100 nM, respectively.
For `CCN1CCC2(CC1)OCc1cc(-c3n[nH]c4ccc(O[C@H](C)c5c(C)cnnc5C)cc34)ccc1O2` [Example 106, (R)-6-(5-(1-(3,5-dimethylpyridazin-4-yl)ethoxy)-1H-indazol-3-yl)-1′-ethyl-4H-spiro[benzo[d][1,3]dioxine-2,4′-piperidine]], the Kd on FGFR1, on FGFR2, at FGFR3 and on FGFR4 was 0.1 to 100 nM in each case. The IC50 on BCR-FGFR1 Ba/F3 and at FGFR3-BAIAP2L1 Ba/F3 was 0.1 to 100 nM each time.
With `CCN1CCC2(CCc3cc(-c4n[nH]c5ccc(O[C@H](C)c6c(C)cnnc6C)cc45)ccc3O2)CC1` [Example 111, (R)-6-(5-(1-(3,5-dimethylpyridazin-4-yl)ethoxy)-1H-indazol-3-yl)-1′-ethylspiro[chroman-2,4′-piperidine]], the equilibrium dissociation constant (Kd) on FGFR1, on FGFR2, on FGFR3 and on FGFR4 was 0.1 to 100 nM in each case. Moreover, the 50% inhibitory concentration (IC50) on BCR-FGFR1 Ba/F3 and on FGFR3-BAIAP2L1 Ba/F3 was 0.1 to 100 nM each time.
For `Cc1cnnc(C)c1[C@@H](C)Oc1ccc2[nH]nc(-c3ccc4c(c3)COC3(CCN(C(C)C)CC3)O4)c2c1` [Example 112, (R)-6-(5-(1-(3,5-dimethylpyridazin-4-yl)ethoxy)-1H-indazol-3-yl)-1′-isopropyl-4H-spiro[benzo[d][1,3]dioxine-2,4′-piperidine]], the equilibrium dissociation constant (Kd) on FGFR1, at FGFR2, at FGFR3 and on FGFR4 was 0.1 to 100 nM throughout. Also, the IC50 at BCR-FGFR1 Ba/F3 and at FGFR3-BAIAP2L1 Ba/F3 was 0.1 to 100 nM throughout.
Take `Cc1cc(-c2n[nH]c3ccc(O[C@H](C)c4c(Cl)cnc(C)c4Cl)cc23)cnc1O[C@H]1CCOC1` [Example 154, 5-[(1R)-1-(3,5-dichloro-2-methyl-4-pyridyl)ethoxy]-3-[5-methyl-6-[(3S)-tetrahydrofuran-3-yl]oxy-3-pyridyl]-1H-indazole]: the Kd fell in the range of 250 to 1000 nM on FGFR1, 250 to 1000 nM at FGFR2, 0.1 to 100 nM at FGFR3 and 0.1 to 100 nM at FGFR4.
Turning to `C[C@@H](Oc1ccc2[nH]nc(-c3ccc(OC4CC5(COC5)C4)nc3)c2c1)c1c(Cl)cncc1Cl` [Example 161, (R)-3-(6-(2-oxaspiro[3.3]heptan-6-yloxy)pyridin-3-yl)-5-(1-(3,5-dichloropyridin-4-yl)ethoxy)-1H-indazole], the dissociation constant Kd on FGFR1, on FGFR2, at FGFR3 and at FGFR4 was 0.1 to 100 nM in each case.
With `Cc1ncc(Cl)c([C@@H](C)Oc2ccc3[nH]nc(-c4ccc5c(c4)COC4(CCN(CC(F)(F)F)CC4)O5)c3c2)c1Cl` [Example 167, 6-[5-[(1R)-1-(3,5-dichloro-2-methyl-4-pyridyl)ethoxy]-1H-indazol-3-yl]-1′-(2,2,2-trifluoroethyl)spiro[4H-1,3-benzodioxine-2,4′-piperidine]], the Kd on FGFR1 was in the range of 100 to 250 nM; at FGFR2, 100 to 250 nM; at FGFR3, 0.1 to 100 nM; at FGFR4 it was 0.1 to 100 nM.
With `C[C@@H](Oc1ccc2[nH]nc(-c3ccc4c(c3)COC3(CCN(CC(F)F)CC3)O4)c2c1)c1c(Cl)cncc1Cl` [Example 168, 6-[5-[(1R)-1-(3,5-dichloro-4-pyridyl)ethoxy]-1H-indazol-3-yl]-1′-(2,2-difluoroethyl)spiro[4H-1,3-benzodioxine-2,4′-piperidine]], the dissociation constant Kd on FGFR1, on FGFR2, on FGFR3 and on FGFR4 was 0.1 to 100 nM each time.
